Test results from ChEMBL document CHEMBL1129021, “Synthesis and biological evaluation of the L-enantiomer of 2-deoxy-5-ethyl-4-thiouridine” (Bioorg Med Chem Lett, 1996).

Legend:
Type in all cases: functional, organism-based
Human betaherpesvirus 5 = assay: Compound was evaluated for the antiviral activity against human cytomegalo virus(HCMV)
Human alphaherpesvirus 2 = assay: Compound was evaluated for the antiviral activity against herpes simplex virus-2(HSV-2)
Human alphaherpesvirus 3 = assay: Compound was evaluated for the antiviral activity against varicella zoster virus(VZV)
[1] = tested on: Human immunodeficiency virus 1; assay: Compound was evaluated for the antiviral activity against human immunodeficiency virus-1(HIV-1)

IC50 (Human betaherpesvirus 5) | IC50 (Human alphaherpesvirus 2) | IC50 (Human alphaherpesvirus 3) | IC50 [1] | Structure (SMILES)
> 100 µM | > 50 µM | > 40 µM | > 50 µM | CCc1cn([C@@H]2C[C@@H](O)[C@H](CO)S2)c(=O)[nH]c1=O
> 100 µM | 2.3 µM | 0.76 µM | > 100 µM | CCc1cn([C@H]2C[C@H](O)[C@@H](CO)S2)c(=O)[nH]c1=O
